The text below walks through data of US4251628A, “Substrates for angiotensin converting enzyme” (priority 1978, dated 1981).

What is called Km is the substrate concentration at which the rate is half of its maximum.

Data set [1] can be described thus: Extraction (partition) into ethyl acetate. The data set is classed as physicochemical. An excerpt:
(§1) Reaction conditions optimal for carrying out an ACE catalyzed hydrolysis of a substrate of the present invention are the same as have been previously described for substrates known in the prior art. Detailed studies of optimal conditions using HipGlyGly as substrate have been reported by Dorer, et al. The pH optimum is approximately 8.0 although greater than 50% maximal activity is obtained in the pH range 7.0-9.0, in the presence of 1 M NaCl. […] The relationship between the chloride requirement and the ionic strength requirement has not been fully characterized. […] Phosphate is inhibitory. Hepes, bicine and barbital buffers are suitable for use but Hepes is preferred because it provides maximum activity. Preferred conditions of buffer composition, ionic strength, pH and temperature are described in Example 1. […] The pH range for usable enzyme activity is from pH 6.5 to pH 8.7, with a broad plateau of maximal activity ranging from pH 7.2 to pH 8.5. Optimal substrate concentration depends upon the apparent Km, for the substrate compared with the Km's of possible competing substances in the sample. A substrate having a relatively low Km, such as ^3 H-benzoylProPheArg (Km 2×10^-4 M) could be suitably used at a concentration less than its Km. A substrate having a higher Km might better be used at a concentration greater than its Km. […] Because its Km is the lowest of any of the substrates of the present invention, ^3 H-benzoylProPheArg is the most preferred substrate for assays where ACE activity is low and maximum sensitivity is desired. In addition to being less sensitive to competitive inhibition, assays carried out with this substrate are potentially able to measure lower levels of ACE than the other substrates disclosed herein. Additionally, its partition behavior in an aprotic organic solvent is extremely favorable: only about 3% entered ethyl acetate in a preliminary extraction experiment. The remnant product Benzoylproline was about 90% extracted.
The remnant reaction product may be extracted from the reaction mixture by an aprotic organic solvent which affords a reasonably quantitative separation of product from substrate. The use of solvents which may interfere with the counting process is to be avoided. Ethyl acetate is preferred. Approximately 91% of ^3 H-Hippuric acid is extracted into ethyl acetate. Extraction may be carried out by any suitable means familiar to those skilled in the art, such as shaking, agitating, mixing and the like. Separation of the phases is conveniently accomplished by centrifugation. Centrifugation at 1000×G for ten minutes is preferred, either at room temperature or in a refrigerated centrifuge. In some cases, an emulsion will form which can be separated by a longer centrifugation step.
A control determination of background radioactivity was made using 50 μl. of reaction buffer instead of diluted serum in the reaction mixture. The purpose of this control was to determine the number of total counts attributable to background radiation, non-specific release of hippuric acid and the presence of unreacted substrate in the ethyl acetate phase. Less than 7% of the ^3 H-HipGly Gly entered the organic phase. Total radioactivity was determined by counting an amount of substrate equal to that used in the reaction mixture directly in the scintillation counter. […]

In data set [2] the test system is angiotensin converting enzyme (ACE). Nature of the data set: ACE-catalyzed hydrolysis: Km, pH, chloride and buffer dependence. Format: biochemical. The note with it: by substrate.
Excerpt: as §1

Data set [3] relates to serum carboxypeptidase. Nature of the data set: Sensitivity to serum carboxypeptidase. The data set is classed as biochemical.
Data set [4] concerns the target T1, angiotensin converting enzyme (ACE) (Cavia porcellus, UniProt H0UWL7).
T1 construct: native circulating soluble form, expected to be shed somatic ACE
T1 sequence (H0UWL7 33-1234): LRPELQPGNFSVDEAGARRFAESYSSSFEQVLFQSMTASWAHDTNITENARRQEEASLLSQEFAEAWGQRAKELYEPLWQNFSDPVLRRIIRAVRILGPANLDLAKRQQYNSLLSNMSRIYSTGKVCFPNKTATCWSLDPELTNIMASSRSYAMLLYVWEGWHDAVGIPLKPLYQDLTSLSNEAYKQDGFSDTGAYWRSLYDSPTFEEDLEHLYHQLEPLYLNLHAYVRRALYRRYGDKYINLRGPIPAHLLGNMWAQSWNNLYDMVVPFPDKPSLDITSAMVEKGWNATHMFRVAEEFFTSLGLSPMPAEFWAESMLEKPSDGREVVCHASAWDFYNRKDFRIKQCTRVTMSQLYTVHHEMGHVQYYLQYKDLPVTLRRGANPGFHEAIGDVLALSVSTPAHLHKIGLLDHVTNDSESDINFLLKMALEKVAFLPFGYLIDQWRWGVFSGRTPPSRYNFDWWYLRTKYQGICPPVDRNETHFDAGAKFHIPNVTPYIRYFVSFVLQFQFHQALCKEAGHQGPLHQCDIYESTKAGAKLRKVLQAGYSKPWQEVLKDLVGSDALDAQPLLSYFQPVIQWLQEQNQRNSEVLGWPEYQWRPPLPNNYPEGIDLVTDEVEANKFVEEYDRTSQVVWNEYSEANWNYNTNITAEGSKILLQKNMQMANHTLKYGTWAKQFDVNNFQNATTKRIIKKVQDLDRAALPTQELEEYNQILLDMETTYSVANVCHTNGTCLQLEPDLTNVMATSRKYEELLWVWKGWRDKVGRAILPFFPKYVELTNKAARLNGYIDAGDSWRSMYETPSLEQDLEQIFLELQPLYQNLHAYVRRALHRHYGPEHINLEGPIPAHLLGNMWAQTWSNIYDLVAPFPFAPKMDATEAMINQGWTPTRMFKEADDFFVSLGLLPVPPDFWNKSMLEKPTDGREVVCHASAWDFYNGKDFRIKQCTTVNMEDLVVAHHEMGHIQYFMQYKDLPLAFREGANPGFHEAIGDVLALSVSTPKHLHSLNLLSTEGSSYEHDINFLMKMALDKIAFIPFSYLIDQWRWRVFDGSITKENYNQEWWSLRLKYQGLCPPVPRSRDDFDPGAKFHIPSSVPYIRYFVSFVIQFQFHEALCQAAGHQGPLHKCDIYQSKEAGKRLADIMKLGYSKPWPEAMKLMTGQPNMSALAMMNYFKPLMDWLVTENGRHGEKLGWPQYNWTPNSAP
Briefly: Hydrolysis of ^125I-HPPGlyGlyGly by guinea pig serum ACE. Format: biochemical. How it is done:
The standard assay conditions as described in Example 1 were employed except that the source of ACE was guinea pig serum and the amount of substrate added was that amount needed to give 101,436 total counts per minute. In terms of mass, this amount is believed to be well below the Km for the substrate. Samples were incubated for 15 minutes, 30 minutes and 60 minutes, and an unreacted sample (0 time) was used to determine the amount of substrate extracted into ethyl acetate.

Data set [5] deals with angiotensin converting enzyme (ACE). The conditions noted are these: similar reaction conditions, enzyme from hog lung (Dorer et al.); cited from earlier work.
For data set [6] the test system is unchanged. The conditions noted are these: HipGlyGly as substrate, cited from earlier work.
The target of data set [7] is T2, angiotensin converting enzyme (ACE) (Homo sapiens, UniProt P12821).
T2 construct: Serum was prepared from fresh whole blood by standard techniques; from tissue; host or cells: serum (unfractionated)
T2 sequence (P12821 30-1232 limits assumed): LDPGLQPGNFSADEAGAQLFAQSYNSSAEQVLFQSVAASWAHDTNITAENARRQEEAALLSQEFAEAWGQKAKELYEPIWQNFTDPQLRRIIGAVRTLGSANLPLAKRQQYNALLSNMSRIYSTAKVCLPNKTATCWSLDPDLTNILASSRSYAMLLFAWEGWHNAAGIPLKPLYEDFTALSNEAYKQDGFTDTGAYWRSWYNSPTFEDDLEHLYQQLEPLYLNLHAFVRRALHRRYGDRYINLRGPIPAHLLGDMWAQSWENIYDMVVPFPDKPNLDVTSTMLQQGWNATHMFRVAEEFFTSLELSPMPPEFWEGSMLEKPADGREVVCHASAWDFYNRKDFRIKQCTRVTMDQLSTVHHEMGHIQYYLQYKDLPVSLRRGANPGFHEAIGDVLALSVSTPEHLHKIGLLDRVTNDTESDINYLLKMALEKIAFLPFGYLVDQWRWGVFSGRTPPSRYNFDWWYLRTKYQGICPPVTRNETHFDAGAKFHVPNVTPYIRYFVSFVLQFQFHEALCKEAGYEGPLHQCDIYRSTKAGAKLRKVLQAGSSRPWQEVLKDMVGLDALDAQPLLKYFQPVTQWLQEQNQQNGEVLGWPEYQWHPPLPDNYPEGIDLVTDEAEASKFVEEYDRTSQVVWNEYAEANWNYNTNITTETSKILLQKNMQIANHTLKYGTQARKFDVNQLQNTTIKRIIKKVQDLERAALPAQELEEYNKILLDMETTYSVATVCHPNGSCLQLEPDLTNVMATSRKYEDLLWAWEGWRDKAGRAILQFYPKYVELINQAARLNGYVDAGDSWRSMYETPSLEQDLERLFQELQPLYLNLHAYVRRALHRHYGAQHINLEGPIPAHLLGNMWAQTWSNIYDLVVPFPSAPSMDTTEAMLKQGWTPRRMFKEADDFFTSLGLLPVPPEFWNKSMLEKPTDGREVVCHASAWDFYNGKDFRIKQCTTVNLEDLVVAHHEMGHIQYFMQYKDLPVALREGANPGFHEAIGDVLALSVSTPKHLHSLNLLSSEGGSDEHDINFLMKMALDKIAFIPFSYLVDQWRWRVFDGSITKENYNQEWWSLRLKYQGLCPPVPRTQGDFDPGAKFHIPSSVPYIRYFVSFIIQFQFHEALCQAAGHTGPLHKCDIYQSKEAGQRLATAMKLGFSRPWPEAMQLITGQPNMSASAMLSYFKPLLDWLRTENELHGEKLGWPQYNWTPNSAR
Nature of the data set: ACE assay: hydrolysis of ^3H-HipGlyGly by human serum, Lineweaver-Burke Km. The data set is classed as biochemical. As to the method: The following sample illustrates the preferred assay method, the sensitivity of the assay and the Km for ^3 H-HipGlyGly. The reaction buffer contains 0.05 M Hepes, 0.1 M sodium chloride and 0.6 M sodium sulphate at pH 8.0. (Pepes is N-2-Hydroxyethyl piperazine N'-2-ethane sulfonic acid.) The substrate, ^3 H-HipGlyGly was dissolved in reaction buffer at a concentration of 16 mM and a specific radioactivity of about 0.15 millicuries/millimole. Serum was prepared from fresh whole blood by standard techniques. […] Hemolyzed samples were not used in the assay. Serum samples could be stored at least for one week at 2° C. to 8° C. or for at least 8 weeks frozen, prior to assaying. For the assay, 50 μl. of serum was diluted with 200 μl. of reaction buffer. All the reactions were carried out in glass tubes due to the potentially destructive action of ethyl acetate on plastic.
The reaction mixture was composed of 50 μl. of diluted serum, an appropriate amount of substrate solution depending on the final substrate concentration desired, and reaction buffer sufficient to give a total reaction volume of 100 μl. All reaction tubes were incubated for 60 minutes at 37° C. Reactions were terminated by the addition of 1.0 ml. of 0.1 N hydrochloric acid. The reaction mixture was then extracted with 1.0 ml. ethyl acetate, by rotary agitation for 4-5 seconds. The phases were separted by centrifugation at 1000×G for ten minutes. A 0.5 ml. sample of the ethyl acetate (upper) layer was removed and tranferred to a scintillation vial containing 10 ml. scintillation fluid. (Riafluor, Trademark, New England Nuclear Corp., Boston, Mass.)
A control determination of background radioactivity was made using 50 μl. of reaction buffer instead of diluted serum in the reaction mixture. The purpose of this control was to determine the number of total counts attributable to background radiation, non-specific release of hippuric acid and the presence of unreacted substrate in the ethyl acetate phase. Less than 7% of the ^3 H-HipGly Gly entered the organic phase. Total radioactivity was determined by counting an amount of substrate equal to that used in the reaction mixture directly in the scintillation counter.
Reaction velocity, in terms of nanomoles of product formed per minute per ml of serum was calculated according to the following formula: [formula] In this formula, "nmoles" means nanomoles, "min" means minutes, "ml" means milliliters and "cpm" means radioactivity counts per minute. The factor of 2 is a correction for the aliquot size. In the case where a significant fraction of substrate has been hydrolyzed, and the substrate in one which is more soluble in the organic phase, as for example, ^125 I-HPPGlyGlyGly, a modified formula is used to take account of the decreasing amount of substrate as the reaction progresses: [formula]
Reciprocal values of initial substrate concentration and reaction velocity were calculated and graphed according to the method of Lineweaver and Burke, as shown in FIG. 1. A straight line was obtained, which intercepted the ordinate at a value equal to the reciprocal of the maximum velocity of the enzyme reaction and intercepted the abcissa at a value equal to the negative reciprocal of the apparent Michaelis constant. […] It can be seen that reaction velocities as low as 12 nanomoles of substrate hydrolyzed per minute per ml. of serum can readily be measured.

In the case of `O=C(O)CNC(=O)CNC(=O)CNC(=O)CCc1ccc(O)c([125I])c1` [^125 I-HPPGlyGlyGly, ^125 I-p-hydroxyphenylpropionylglycylglycylglycine], in data set [1], the “Fraction extracted into ethyl acetate” value is recorded as 27.2%. The “Chloride / ionic strength requirement of the ACE-catalyzed hydrolysis” value in data set [2] was “requires chloride ions”. Further, the “Sensitivity to serum carboxypeptidase” value in data set [3] was “insensitive to serum carboxypeptidase”. The “Net cpm in product” value was 0 cpm in data set [4] (incubation 0 min), 17,808 cpm in data set [4] (incubation 15 min), 43,804 cpm in data set [4] (incubation 30 min) and 58,044 cpm in data set [4] (incubation 60 min). The “cpm in Ethyl Acetate phase” value is on record as 27,205 cpm in data set [4] (incubation 0 min), 40,000 cpm in data set [4] (incubation 15 min), 59,182 cpm in data set [4] (incubation 30 min) and 69,577 cpm in data set [4] (incubation 60 min).

`[3H]c1ccc(C(=O)NCC(=O)NCC(=O)NCC(=O)O)cc1` [^3 H-HipGlyGly, ^3 H-hippurylglycylglycine]: the Km in data set [5] is 2600 µM. The “Fraction extracted into ethyl acetate” value in data set [1] was “Less than 7%”. The “pH range with greater than 50% maximal activity” value in data set [6] (1 M NaCl) was 7.0-9.0. In addition, the “pH optimum of ACE-catalyzed hydrolysis” value in data set [6] (Dorer et al.) is given as “approximately 8.0”. For the same compound, the “Chloride / ionic strength requirement of the ACE-catalyzed hydrolysis” value in data set [2] is on record as “requires chloride ions”. In addition, the “Reciprocal of reaction velocity” value is 0.0504 in data set [7] ([S] 1.82 mM); 0.0289 in data set [7] ([S] 3.64 mM); 0.0214 in data set [7] ([S] 5.45 mM); 0.0191 in data set [7] ([S] 7.27 mM); 0.0183 in data set [7] ([S] 9.09 mM); 0.0810 in data set [7] ([S] .91 mM). The Velocity in data set [7] ([S] 1.82 mM) is given as 19.83 nanomoles of product formed pe; in data set [7] ([S] 3.64 mM) it was 34.65 nanomoles of product formed pe; in data set [7] ([S] 5.45 mM) it was 46.76 nanomoles of product formed pe; in data set [7] ([S] 7.27 mM) it was 52.48 nanomoles of product formed pe; in data set [7] ([S] 9.09 mM) it was 54.63 nanomoles of product formed pe; in data set [7] ([S] .91 mM), 12.35 nanomoles of product formed pe. Moreover, the “Assay sensitivity (lowest measurable enzyme activity)” value in data set [7] (assay condition of Example 1) was 8 units of enzyme per ml. The “Sensitivity to serum carboxypeptidase” value in data set [3] was “insensitive to serum carboxypeptidase”.
